{"source": "ChEMBL document CHEMBL1157375", "about": "“Prospective randomized trial of empiric therapy with trimethoprim-sulfamethoxazole or doxycycline for outpatient skin and soft tissue infections in an area of high prevalence of methicillin-resistant Staphylococcus aureus” (2007)", "tested_on": "Staphylococcus aureus", "assay": "Antimicrobial activity against methicillin-resistant Staphylococcus aureus infected patient with skin and soft tissue infection abscesses assessed as clinical failure rate at 100 mg, po twice daily for 7 days", "assay_type": "functional, organism-based", "note": "Active and inactive are the calls of the source. The calls are words filed in the database; no cut-off is given here."}
{"smiles": "C[C@H]1c2cccc(O)c2C(=O)C2=C(O)[C@]3(O)C(=O)C(C(N)=O)=C(O)[C@@H](N(C)C)[C@@H]3[C@@H](O)[C@@H]21", "values": [{"measurement": "Activity", "value": "Active"}]}
